Laboratory results reported in US20250340557A1, “PYRIMIDINE DERIVATIVE” (ASKA PHARMACEUTICAL CO., LTD., priority 2022, published 2025).

What follows are molecules tested against T1, human mPGES-1 (Homo sapiens, UniProt O14684) (assay: Test for mPGES-1 inhibitory activity (microsomal enzyme, PGE2 EIA)). Conditions: microsomes from COS-1 cells transfected with human mPGES-1 cDNA; substrate PGH2 1 μM; 4° C., 4 minutes; PGE2 measured by EIA; read-out: h mPGES1 IC50.
T1 construct: made in house; host or cells: COS-1 cells (transient transfection; microsomal fraction used as enzyme)
T1 sequence (O14684 1-152): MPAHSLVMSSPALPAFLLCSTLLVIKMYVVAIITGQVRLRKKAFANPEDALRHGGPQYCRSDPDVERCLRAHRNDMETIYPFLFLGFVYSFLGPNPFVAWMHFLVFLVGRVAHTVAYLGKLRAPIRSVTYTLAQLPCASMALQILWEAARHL
Assay type: biochemical
Method: Test Example 1: Test for mPGES-1 Inhibitory Activity
Microsomes were prepared from COS-1 cells transiently transfected with a plasmid containing human mPGES-1 cDNA, and used as mPGES-1 enzyme. The mPGES-1 enzyme was diluted with a sodium phosphate buffer (pH 7.2) containing reduced glutathione (2.5 mM) and EDTA (1 mM), DMSO or a DMSO solution of a test compound (final concentration of DMSO was 2%) was added to the enzyme, and the mixture was preincubated at 4° C. for 15 minutes. Then, PGH2 (Prostaglandin H2) as the substrate was added at a final concentration of 1 μM to start the enzymatic reaction, and after incubation at 4° C. for 4 minutes, a solution of ferric chloride (25 mM) and citric acid (50 mM) was added to terminate the enzymatic reaction. Generated PGE2 (Prostaglandin E2) was measured by using Prostaglandin E2 Express EIA Kit (Cayman Chemical). IC50 values were determined by using a standard method.

Structure (SMILES) | IC50 [nM]
O=c1cc(C(F)(F)F)nc(-c2c(C(F)(F)F)ccc(CNC(=O)[C@H]3C[C@@H](OCc4ccccc4Cl)C3)c2F)[nH]1 [Example 137, cis-3-[(2-chlorobenzyl)oxy]-N-{2-fluoro-3-[6-oxo-4-(trifluoromethyl)-1,6-dihydropyrimidin-2-yl]-4-(trifluoromethyl)benzyl}cyclobutane-1-carboxamide] | 2.9
Cc1cccc2ccc(N3CCC(C(=O)NCc4ccc(C(F)(F)F)c(-c5nccc(=O)[nH]5)c4F)CC3)nc12 [Example 7, N-[2-fluoro-3-(6-oxo-1,6-dihydropyrimidin-2-yl)-4-(trifluoromethyl)benzyl]-1-(8-methylquinolin-2-yl)piperidine-4-carboxamide] | < 1
Cc1nc(-c2c(C(F)(F)F)ccc(CNC(=O)C3CCN(c4cccc(C(F)(F)F)c4)CC3)c2F)[nH]c(=O)c1F [Example 97, N-[2-fluoro-3-(5-fluoro-4-methyl-6-oxo-1,6-dihydropyrimidin-2-yl)-4-(trifluoromethyl)benzyl]-1-[3-(trifluoromethyl)phenyl]piperidine-4-carboxamide] | < 1
Cc1nc(-c2c(C(F)(F)F)ccc(CNC(=O)[C@H]3CC[C@H](OCc4ccc(F)c(F)c4)CC3)c2F)[nH]c(=O)c1F [Example 127, trans-4-[(3,4-difluorobenzyl)oxy]-N-[2-fluoro-3-(5-fluoro-4-methyl-6-oxo-1,6-dihydropyrimidin-2-yl)-4-(trifluoromethyl)benzyl]cyclohexane-1-carboxamide] | < 1
Cc1cccc(N2CCC(C(=O)NCc3ccc(C(F)(F)F)c(-c4nc(C(F)(F)F)cc(=O)[nH]4)c3F)CC2)n1 [Example 17, N-{2-fluoro-3-[6-oxo-4-(trifluoromethyl)-1,6-dihydropyrimidin-2-yl]-4-(trifluoromethyl)benzyl}-1-(6-methylpyridin-2-yl)piperidine-4-carboxamide] | < 10
O=C(NCc1ccc(C(F)(F)F)c(-c2nc(C(F)(F)F)cc(=O)[nH]2)c1F)C1CCN(c2ccc(C(F)(F)F)nc2)CC1 [Example 21, N-{2-fluoro-3-[6-oxo-4-(trifluoromethyl)-1,6-dihydropyrimidin-2-yl]-4-(trifluoromethyl)benzyl}-1-[6-(trifluoromethyl)pyridin-3-yl]piperidine-4-carboxamide] | < 1

Same assay, conditions: microsomes of COS-1 cells transfected with human mPGES-1 cDNA; PGH2 1 μM; 4° C., 4 minutes; PGE2 by EIA; read-out: h mPGES1 IC50

Structure (SMILES) | IC50 [nM]
Cc1cc(=O)[nH]c(-c2c(C(F)(F)F)ccc(CNC(=O)[C@H]3C[C@H](OCc4ccccc4C(F)(F)F)C3)c2F)n1 [Example 181, trans-N-[2-fluoro-3-(4-methyl-6-oxo-1,6-dihydropyrimidin-2-yl)-4-(trifluoromethyl)benzyl]-3-{[2-(trifluoromethyl)benzyl]oxy}cyclobutane-1-carboxamide] | 19
Cc1cc(=O)[nH]c(-c2c(C(F)(F)F)ccc(CNC(=O)[C@H]3C[C@H](OCc4ccc(F)cc4Cl)C3)c2F)n1 [Example 190, trans-3-[(2-chloro-4-fluorobenzyl)oxy]-N-[2-fluoro-3-(4-methyl-6-oxo-1,6-dihydropyrimidin-2-yl)-4-(trifluoromethyl)benzyl]cyclobutane-1-carboxamide] | < 1
O=C(Cc1ccc(C(F)(F)F)cc1)NCc1ccc(C(F)(F)F)c(-c2nc(C(F)(F)F)cc(=O)[nH]2)c1F [Example 283, N-{2-fluoro-3-[6-oxo-4-(trifluoromethyl)-1,6-dihydropyrimidin-2-yl]-4-(trifluoromethyl)benzyl}-2-[4-(trifluoromethyl)phenyl]acetamide] | 1.5
CCc1nc(-c2c(C(F)(F)F)ccc(CNC(=O)[C@H]3C[C@H](OCc4ccc(F)c(Cl)c4)C3)c2F)[nH]c(=O)c1F [Example 244, trans-3-[(3-chloro-4-fluorobenzyl)oxy]-N-[3-(4-ethyl-5-fluoro-6-oxo-1,6-dihydropyrimidin-2-yl)-2-fluoro-4-(trifluoromethyl)benzyl]cyclobutane-1-carboxamide] | < 1
